Like-named read-outs stand apart in the source and are kept apart here.
Assays:
C. albicans ATCC 10231 = assay: In vitro susceptibility testing, microdilution broth (EUCAST), C. albicans control strain; type: cell-based, Candida albicans; conditions: for inhibition at 100 µM: ATCC10231, 24 h; for antifungal activity against C. albicans growth, in words: screen at 100 μM; for IC50: mean and 95% confidence interval
Protocol: The in vitro antifungal activity of the chalcones was evaluated by a microdilution broth method in accordance with the guidelines provided by the EUCAST Edef 7.3 [22]. Briefly, all strains were cultured on Sabauraud dextrose, then inocula, prepared at 0.5 McFarland, were diluted 1:20 in RPMI-1640 medium (Gibco®, ThermoFisher Scientific Inc., Waltham, MA, USA), containing glucose 2%, 0.3% levo-glutamine buffered to pH 7.0 with 0.165 M 3-(N-morpholino)propanesulfonic acid (MOPS) to yield 1-5 × 10^5 cells/mL. A total of 100 µL of the yeast suspension was inoculated in a 96-well microplate and incubated with 100 µL of serially 2-fold dilution of the compound in the range 200–6.25 µM. The following controls were included: yeast suspensions incubated in RPMI-1640 culture medium (positive growth control), or supplemented with dilutions of DMSO, or fluconazole (Sigma-Aldrich, St. Louis, MO, USA) as a commercial drug. To check the background turbidity of reagents and the sterility of the procedure, dilutions of each compound were incubated in RPMI-1640 culture medium, without yeast inoculum. The inoculated plate was incubated at 37 °C for 24 h, and subsequently the optical density at 630 nm was measured by the Multiskan Ascent microplate reader (Thermo Fisher Scientific Inc.). The effectiveness of the compounds was expressed as percent inhibition relative to the positive growth control when the inhibition […] the 50% at 100 µM. The IC50 value was determined by interpolation of the dose–response curves generated by plotting the percentages of growth inhibition, relative to the drug-free control (set to 100% of growth), as a function of the tested concentrations (on a logarithm scale). Statistical analysis was carried out by the nonlinear regression method using GraphPad Prism version 5.0 for Windows (GraphPad Software, San Diego, CA, USA). All assays were performed in triplicate and at least two independent experiments were carried out.

[1] = Cytotoxicity test on Vero cells (WST8/CCK-8 cell viability); type: cell-based, African green monkey; conditions: African green monkey, Vero cells (ATCC CCL-81), Vero cells, mean and 95% confidence interval
Protocol: African green monkey kidney cells (Vero ATCC CCL-81) were cultured in Eagle’s Minimal Essential Medium (MEM) (Sigma-Aldrich), supplemented with 10% fetal bovine serum (FBS) (Carlo Erba Reagents, Milan, Italy), 100 U/mL penicillin, and 100 µg/mL streptomycin at 37 °C with 5% CO2. For experiments, cells were seeded into 96-well plates at 10^4 cells/well, and incubated at 37 °C for 24 h. Following washes with PBS, cell monolayer was incubated with 100 µL of serially 2-fold dilution of the compound in the range 200–6.25 µM. Both untreated cells and cells incubated with medium containing solvent dilutions were included in each experiment as controls.
The cell viability was assessed by a WST8-based assay according to the manufacturer’s instructions (CCK-8, Cell Counting Kit-8, Dojindo Molecular Technologies, Rockville, MD, USA). After 72 h of incubation, culture medium was removed from each well, the monolayer was washed with PBS, and 100 µL of fresh medium containing 10 µL of CCK-8 solution were added. Following a 2 h at 37 °C, the absorbance was measured at 450/630 nm; data were calculated as the percentage of the cell viability relative to the untreated controls.

[2] = Candida albicans, C. albicans ATCC 10231
[3] = Candida albicans, ATCC10231, C. albicans ATCC 10231, read-out: IC50
[4] = Candida albicans, ATCC10231, C. albicans ATCC 10231, read-out: IC50 [μg/mL]
[5] = C. albicans ATCC 10231, read-out: IC50

melting point | IC50 (C. albicans ATCC 10231; [3]) | IC50 (C. albicans ATCC 10231; [4]) | IC50 (C. albicans ATCC 10231; [5]) | Compound | inhibition at 100 µM (C. albicans ATCC 10231; [2]) | antifungal activity against C. albicans growth, in words (C. albicans ATCC 10231; C. albicans ATCC 10231) | CC50 at 72 h ([1]; read-out: CC50) | CC50 at 72 h ([1]; read-out: CC50 [μg/mL])
– | – | – | – | O=C(/C=C/c1ccccc1F)c1cc(Cl)ccc1O [Compound 2, (E)-1-(5-Chloro-2-hydroxyphenyl)-3-(2-fluorophenyl)prop-2-en-1-one] | 35.8 ± 1.1% | – | – | –
– | – | – | – | CN(C)c1ccc(/C=C/C(=O)c2cc(Cl)ccc2O)cc1 [Compound 6, (E)-1-(5-chloro-2-hydroxyphenyl)-3-(4-(dimethylamino)phenyl)prop-2-en-1-one] | < 1% | inactive | – | –
– | – | – | – | O=C(/C=C/c1ccc(F)cc1)c1cc(F)ccc1O [Compound 8, (E)-1-(5-Fluoro-2-hydroxyphenyl)-3-(4-fluorophenyl)prop-2-en-1-one] | < 1% | – | – | –
– | – | – | – | CN(C)c1ccc(/C=C/C(=O)c2cc(F)ccc2O)cc1 [Compound 9, (E)-3-(4-(Dimethylamino)phenyl)-1-(5-fluoro-2-hydroxyphenyl)prop-2-en-1-one] | 38.5 ± 2.9% | – | – | –
– | – | – | – | C#CCOc1ccc(C(=O)/C=C/c2ccc(F)cc2)c(OC)c1 [Compound 10, (E)-3-(4-fluorophenyl)-1-(2-methoxy-4-(prop-2-yn-1-yloxy)phenyl)prop-2-en-1-one] | 23.3 ± 9.6% | – | – | –
174 to 175 °C | – | – | – | C#CCOc1ccc(C(=O)/C=C/c2ccc(Cl)cc2Cl)c(OC)c1 [Compound 11, (E)-3-(2,4-dichlorophenyl)-1-(2-methoxy-4-(prop-2-yn-1-yloxy)phenyl)prop-2-en-1-one] | 9.8 ± 6.7% | inactive | – | –
– | 30.7 µM | 9 µg/mL | – | C#CCOc1ccc(C(=O)/C=C/c2cccnc2)c(OC)c1 [Compound 12] | > 99% | – | 13.6 µM | 4 µg/mL
– | 8.1 µM | 2.4 µg/mL | – | C#CCOc1ccc(C(=O)/C=C/c2ccncc2)c(OC)c1 [Compound 13] | > 99% | – | 7.3 µM | 2.1 µg/mL
– | – | – | – | C#CCOc1ccc(C(=O)/C=C/c2ccc(N(C)C)cc2)c(OC)c1 [Compound 15, (E)-3-(4-(dimethylamino)phenyl)-1-(2-methoxy-4-(prop-2-yn-1-yloxy)phenyl)prop-2-en-1-one] | < 1% | inactive | – | –
– | 10.8 µM | 3.2 µg/mL | – | C#CCOc1ccc(C(=O)/C=C/c2cccnc2)c(O)c1 [Compound 16] | 91.9 ± 8.2% | – | 17.8 µM | 5.2 µg/mL
– | – | – | – | C#CCOc1ccc(C(=O)/C=C/c2ccc(N(C)C)cc2)c(O)c1 [Compound 17, (E)-3-(4-(dimethylamino)phenyl)-1-(2-hydroxy-4-(prop-2-yn-1-yloxy)phenyl)prop-2-en-1-one] | 11 ± 3.9% | inactive | – | –
– | – | – | – | COc1cc(OCC=C(C)C)ccc1C(=O)/C=C/c1ccc(F)cc1 [Compound 18] | 34.1 ± 7.5% | – | – | –
191 to 193 °C | – | – | – | CC(C)=CCOc1ccc(C(=O)/C=C/c2ccc(Cl)cc2Cl)c(O)c1 [Compound 19, (E)-3-(2,4-dichlorophenyl)-1-(2-hydroxy-4-((3-methylbut-2-en-1-yl)oxy)phenyl)prop-2-en-1-one] | 5.9 ± 5.7% | inactive | – | –
– | 12.6 µM | 3.7 µg/mL | – | CC(C)=CCOc1ccc(C(=O)/C=C/c2ccncc2)c(O)c1 [Compound 21] | 96.5 ± 1.4% | – | 14.8 µM | 4.3 µg/mL
– | – | – | – | C#CCOc1ccc(C(=O)/C=C/c2ccc(F)cc2)c(OCC#C)c1 [Compound 22] | < 1% | inactive | – | –
166 to 168 °C | – | – | – | C#CCOc1ccc(C(=O)/C=C/c2ccc(Cl)cc2Cl)c(OCC#C)c1 [Compound 23, (E)-1-(2,4-bis(prop-2-yn-1-yloxy)phenyl)-3-(2,4-dichlorophenyl)prop-2-en-1-one] | 4.6 ± 13.8% | inactive | – | –
– | 26.3 µM | 12.8 µg/mL | 43.8 µM | C#CCOc1ccc(C(=O)/C=C/c2cccnc2)c(OCC#C)c1 [Compound 24] | 72 ± 9.8% | – | 13 µM | 3.8 µg/mL
– | 43.8 µM | 7.7 µg/mL | 26.3 µM | C#CCOc1ccc(C(=O)/C=C/c2ccncc2)c(OCC#C)c1 [Compound 25] | 81.3 ± 17% | – | 9.1 µM | 2.7 µg/mL
– | 36.8 µM | 10.8 µg/mL | – | C#CCOc1ccc(C(=O)/C=C/c2ccc([N+](=O)[O-])cc2)c(OCC#C)c1 [Compound 26] | 63.9 ± 3.4% | – | 5.1 µM | 1.5 µg/mL
– | – | – | – | C#CCOc1ccc(C(=O)/C=C/c2ccc(N(C)C)cc2)c(OCC#C)c1 [Compound 27, (E)-1-(2,4-bis(prop-2-yn-1-yloxy)phenyl)-3-(4-(dimethylamino)phenyl)prop-2-en-1-one] | < 1% | inactive | – | –
– | – | – | – | COc1cc(O)ccc1C(=O)/C=C/c1ccc(F)cc1 [Compound 29, (E)-3-(4-Fluorophenyl)-1-(4-hydroxy-2-methoxyphenyl)prop-2-en-1-one] | 17.8 ± 4.1% | poor inhibition | – | –
– | – | – | – | COc1cc(OCc2cn(CCO)nn2)ccc1C(=O)/C=C/c1ccc(F)cc1 [Compound 30, (E)-3-(4-fluorophenyl)-1-(4-((1-(2-hydroxyethyl)-1H-1,2,3-triazol-4-yl)methoxy)-2-methoxyphenyl)prop-2-en-1-one] | 9.5 ± 4.8% | inactive | – | –
– | 12 µM | 3.5 µg/mL | – | O=C(/C=C/c1ccc(F)cc1)c1ccc(OCCO)cc1 [Compound 31, (E)-3-(4-fluorophenyl)-1-(4-(2-hydroxyethoxy)phenyl)prop-2-en-1-one] | 97.3 ± 0.5% | – | 8.3 µM | 2.4 µg/mL
87 to 88 °C | – | – | – | CC(C)=CCOc1ccc(C(=O)/C=C/c2cccnc2)cc1 [Compound 32, (E)-1-(4-((3-methylbut-2-en-1-yl)oxy)phenyl)-3-(pyridin-3-yl)prop-2-en-1-one] | < 1% | devoid of any effect | – | –
91 to 93 °C | – | – | – | CC(C)=CCOc1ccc(C(=O)/C=C/c2ccncc2)cc1 [Compound 33, (E)-1-(4-((3-methylbut-2-en-1-yl)oxy)phenyl)-3-(pyridin-4-yl)prop-2-en-1-one] | < 1% | devoid of any effect | – | –
– | – | – | – | CC(C)=CCOc1ccc(C(=O)/C=C/c2ccc(N(C)C)cc2)cc1 [Compound 35, (E)-3-(4-(dimethylamino)phenyl)-1-(4-((3-methylbut-2-en-1-yl)oxy)phenyl)prop-2-en-1-one] | 13.9 ± 3.6% | inactive | – | –
– | – | – | – | C#CCOc1ccc(C(=O)/C=C/c2ccc(N(C)C)cc2)cc1 [Compound 39, (E)-3-(4-(dimethylamino)phenyl)-1-(4-(prop-2-yn-1-yloxy)phenyl)prop-2-en-1-one] | < 1% | inactive | – | –
– | – | – | – | C#CCOc1ccc2c(c1)O/C(=C\c1cccnc1)C2=O [Compound 40, (Z)-6-(prop-2-yn-1-yloxy)-2-(pyridin-3-ylmethylene)benzofuran-3(2H)-one] | < 1% | loss in activity | – | –
